In brackets after ≈: the same amount, converted by molar mass.
What was measured:
Staphylococcus aureus [1] = experiment: Antibacterial activity against Staphylococcus aureus assessed as bacterial growth inhibition measured after 24 hrs by two fold serial dilution technique; format: functional
Staphylococcus aureus [2] = experiment: Antibacterial activity against Staphylococcus aureus ATCC 29213 assessed as bacterial growth inhibition measured after 24 hrs by two fold serial dilution technique; format: functional
Klebsiella pneumoniae = experiment: Antibacterial activity against Klebsiella pneumoniae assessed as bacterial growth inhibition measured after 24 hrs by two fold serial dilution technique; format: functional
Enterococcus faecium = experiment: Antibacterial activity against Enterococcus faecium assessed as bacterial growth inhibition measured after 24 hrs by two fold serial dilution technique; format: functional
Pseudomonas aeruginosa [3] = experiment: Antibacterial activity against Pseudomonas aeruginosa assessed as bacterial growth inhibition measured after 24 hrs by two fold serial dilution technique; format: functional
Acinetobacter baumannii = experiment: Antibacterial activity against Acinetobacter baumannii assessed as bacterial growth inhibition measured after 24 hrs by two fold serial dilution technique; format: functional
[4] = Hemolytic activity in human RBC assessed as hemolysis incubated for 1 hr; format: toxicity, cell-based, Erythrocyte; conditions: red blood cells
Staphylococcus aureus [5] = experiment: Antibacterial activity against Staphylococcus aureus ATCC 25923 assessed as bacterial growth inhibition measured after 24 hrs by two fold serial dilution technique; format: functional
Staphylococcus aureus [6] = experiment: Antibacterial activity against methicillin-resistant Staphylococcus aureus assessed as bacterial growth inhibition measured after 24 hrs by two fold serial dilution technique; format: functional
Escherichia coli [7] = experiment: Antibacterial activity against Escherichia coli ATCC 25922 assessed as bacterial growth inhibition measured after 24 hrs by two fold serial dilution technique; format: functional
Escherichia coli [8] = experiment: Antibacterial activity against Escherichia coli assessed as bacterial growth inhibition measured after 24 hrs by two fold serial dilution technique; format: functional
Pseudomonas aeruginosa [9] = experiment: Antibacterial activity against Pseudomonas aeruginosa ATCC 27853 assessed as bacterial growth inhibition measured after 24 hrs by two fold serial dilution technique; format: functional

SMILES	MIC (Staphylococcus aureus [1]) [µg/mL]	MIC (Staphylococcus aureus [2]) [µg/mL]	MIC (Klebsiella pneumoniae) [µg/mL]	MIC (Enterococcus faecium) [µg/mL]	MIC (Pseudomonas aeruginosa [3]) [µg/mL]	MIC (Acinetobacter baumannii) [µg/mL]	HC50 at 1 h [4] [µg/mL]	MIC (Staphylococcus aureus [5]) [µg/mL]	MIC (Staphylococcus aureus [6]) [µg/mL]	MIC (Escherichia coli [7]) [µg/mL]	MIC (Escherichia coli [8]) [µg/mL]	MIC (Pseudomonas aeruginosa [9]) [µg/mL]
CO/N=C(\C(=O)N1CCN(c2ccc3c4c(cccc24)C(=O)N(C2CCCC2)C3=O)CC1)c1csc(N)n1	64 (≈ 120 µM)	32 (≈ 60.1 µM)	32 (≈ 60.1 µM)	16 (≈ 30 µM)	64 (≈ 120 µM)	8 (≈ 15 µM)	278	64 (≈ 120 µM)	8 (≈ 15 µM)	64 (≈ 120 µM)	64 (≈ 120 µM)	32 (≈ 60.1 µM)
CO/N=C(\C(=O)N1CCN(c2ccc3c4c(cccc24)C(=O)N(Oc2ccccc2)C3=O)CC1)c1csc(N)n1	64 (≈ 115 µM)	64 (≈ 115 µM)	32 (≈ 57.5 µM)	64 (≈ 115 µM)	32 (≈ 57.5 µM)	32 (≈ 57.5 µM)	223	16 (≈ 28.7 µM)	1 (≈ 1.8 µM)	128 (≈ 230 µM)	2 (≈ 3.59 µM)	32 (≈ 57.5 µM)
CO/N=C(\C(=O)N1CCN(c2ccc3c4c(cccc24)C(=O)N(c2nnc(C)s2)C3=O)CC1)c1csc(N)n1	64 (≈ 114 µM)	16 (≈ 28.4 µM)	4 (≈ 7.11 µM)	16 (≈ 28.4 µM)	32 (≈ 56.9 µM)	32 (≈ 56.9 µM)	265	64 (≈ 114 µM)	1 (≈ 1.78 µM)	32 (≈ 56.9 µM)	4 (≈ 7.11 µM)	32 (≈ 56.9 µM)
CO/N=C(\C(=O)N1CCN(c2ccc3c4c(cccc24)C(=O)N(C(CO)CO)C3=O)CC1)c1csc(N)n1	64 (≈ 119 µM)	32 (≈ 59.4 µM)	128 (≈ 238 µM)	64 (≈ 119 µM)	32 (≈ 59.4 µM)	32 (≈ 59.4 µM)	232	16 (≈ 29.7 µM)	4 (≈ 7.43 µM)	64 (≈ 119 µM)	4 (≈ 7.43 µM)	32 (≈ 59.4 µM)
CO/N=C(\C(=O)N1CCN(c2ccc3c4c(cccc24)C(=O)N(N)C3=O)CC1)c1csc(N)n1	64 (≈ 133 µM)	64 (≈ 133 µM)	32 (≈ 66.7 µM)	32 (≈ 66.7 µM)	16 (≈ 33.4 µM)	32 (≈ 66.7 µM)	250	32 (≈ 66.7 µM)	4 (≈ 8.34 µM)	64 (≈ 133 µM)	2 (≈ 4.17 µM)	32 (≈ 66.7 µM)
CO/N=C(\C(=O)N1CCN(c2ccc3c4c(cccc24)C(=O)N(c2nccs2)C3=O)CC1)c1csc(N)n1	16 (≈ 29.2 µM)	32 (≈ 58.4 µM)	64 (≈ 117 µM)	16 (≈ 29.2 µM)	64 (≈ 117 µM)	16 (≈ 29.2 µM)	311	16 (≈ 29.2 µM)	2 (≈ 3.65 µM)	64 (≈ 117 µM)	16 (≈ 29.2 µM)	64 (≈ 117 µM)
CO/N=C(\C(=O)N1CCN(c2ccc3c4c(cccc24)C(=O)N(n2cnnc2)C3=O)CC1)c1csc(N)n1	128 (≈ 241 µM)	1 (≈ 1.88 µM)	64 (≈ 120 µM)	16 (≈ 30.1 µM)	16 (≈ 30.1 µM)	16 (≈ 30.1 µM)	255	128 (≈ 241 µM)	2 (≈ 3.76 µM)	64 (≈ 120 µM)	32 (≈ 60.2 µM)	64 (≈ 120 µM)
CO/N=C(\C(=O)N1CCN(c2ccc3c4c(cccc24)C(=O)N(NCCO)C3=O)CC1)c1csc(N)n1	64 (≈ 122 µM)	64 (≈ 122 µM)	16 (≈ 30.6 µM)	64 (≈ 122 µM)	32 (≈ 61.1 µM)	16 (≈ 30.6 µM)	325	8 (≈ 15.3 µM)	4 (≈ 7.64 µM)	128 (≈ 244 µM)	2 (≈ 3.82 µM)	32 (≈ 61.1 µM)
CCON1C(=O)c2cccc3c(N4CCN(C(=O)/C(=N\OC)c5csc(N)n5)CC4)ccc(c23)C1=O	128 (≈ 252 µM)	32 (≈ 62.9 µM)	16 (≈ 31.5 µM)	8 (≈ 15.7 µM)	64 (≈ 126 µM)	2 (≈ 3.93 µM)	509	64 (≈ 126 µM)	8 (≈ 15.7 µM)	64 (≈ 126 µM)	64 (≈ 126 µM)	32 (≈ 62.9 µM)
CO/N=C(\C(=O)N1CCN(c2ccc3c4c(cccc24)C(=O)N(CC#N)C3=O)CC1)c1csc(N)n1	64 (≈ 127 µM)	32 (≈ 63.5 µM)	16 (≈ 31.8 µM)	8 (≈ 15.9 µM)	256 (≈ 508 µM)	8 (≈ 15.9 µM)	299	128 (≈ 254 µM)	16 (≈ 31.8 µM)	64 (≈ 127 µM)	128 (≈ 254 µM)	64 (≈ 127 µM)
CO/N=C(\C(=O)N1CCN(c2ccc3c4c(cccc24)C(=O)N(CCC(=O)O)C3=O)CC1)c1csc(N)n1	64 (≈ 119 µM)	64 (≈ 119 µM)	128 (≈ 239 µM)	16 (≈ 29.8 µM)	16 (≈ 29.8 µM)	16 (≈ 29.8 µM)	210	16 (≈ 29.8 µM)	8 (≈ 14.9 µM)	64 (≈ 119 µM)	8 (≈ 14.9 µM)	32 (≈ 59.6 µM)
CO/N=C(\C(=O)N1CCN(c2ccc3c4c(cccc24)C(=O)N(C2CC2)C3=O)CC1)c1csc(N)n1	32 (≈ 63.4 µM)	64 (≈ 127 µM)	32 (≈ 63.4 µM)	32 (≈ 63.4 µM)	64 (≈ 127 µM)	16 (≈ 31.7 µM)	266	16 (≈ 31.7 µM)	32 (≈ 63.4 µM)	64 (≈ 127 µM)	32 (≈ 63.4 µM)	128 (≈ 254 µM)

Source: ChEMBL document CHEMBL5042496, “An unanticipated discovery towards novel naphthalimide corbelled aminothiazoximes as potential anti-MRSA agents and allosteric modulators for PBP2a” (Eur J Med Chem, 2022)
